# Measurements taken from patent US7741253B2, “Methods and compositions for crosslinking polymers with boronic acids” (Halliburton Energy Services, Inc., priority 2004, dated 2010).
# Experiment: pH titration (method of Wiskur et al.)
# Assay type: physicochemical
# Method: The exemplary boronic acid crosslinking agent prepared as described above was compared to 1,4-phenylene diboronic acid and boric acid using a pH titration that was performed according to the method of S. L. Wiskur, et al., Org.
compound,measurement,setting,value
OB(O)O [Boric acid],pH,NaOH 0 μL,3.03
same,pH,NaOH 1 μL,3.13
same,pH,NaOH 2 μL,3.25
same,pH,NaOH 3 μL,3.4
same,pH,NaOH 4 μL,3.64
same,pH,NaOH 5 μL,4.06
same,pH,NaOH 6 μL,6.08
same,pH,NaOH 7 μL,7.58
same,pH,NaOH 8 μL,7.91
same,pH,NaOH 9 μL,8.11
same,pH,NaOH 10 μL,8.26
same,pH,NaOH 11 μL,8.39
same,pH,NaOH 12 μL,8.49
same,pH,NaOH 13 μL,8.59
same,pH,NaOH 14 μL,8.67
same,pH,NaOH 15 μL,8.74
same,pH,NaOH 16 μL,8.82
same,pH,NaOH 17 μL,8.89
same,pH,NaOH 18 μL,8.96
same,pH,NaOH 19 μL,9.03
same,pH,NaOH 20 μL,9.1
same,pH,NaOH 21 μL,9.17
same,pH,NaOH 22 μL,9.25
same,pH,NaOH 23 μL,9.31
same,pH,NaOH 24 μL,9.38
same,pH,NaOH 25 μL,9.47
same,pH,NaOH 26 μL,9.55
same,pH,NaOH 27 μL,9.65
same,pH,NaOH 28 μL,9.74
same,pH,NaOH 29 μL,9.85
same,pH,NaOH 30 μL,9.95
same,pH,NaOH 31 μL,10.05
same,pH,NaOH 32 μL,10.13
same,pH,NaOH 33 μL,10.22
same,pH,NaOH 34 μL,10.29
same,pH,NaOH 35 μL,10.35
same,pH,NaOH 36 μL,10.4
same,pH,NaOH 37 μL,10.45
same,pH,NaOH 38 μL,10.49
same,pH,NaOH 39 μL,10.53
same,pH,NaOH 40 μL,10.56
same,pH,NaOH 41 μL,10.59
same,pH,NaOH 42 μL,10.62
same,pH,NaOH 43 μL,10.65
same,pH,NaOH 44 μL,10.68
same,pH,NaOH 45 μL,10.7
same,pH,NaOH 46 μL,10.71
same,pH,NaOH 47 μL,10.75
same,pH,NaOH 48 μL,10.77
same,pH,NaOH 49 μL,10.78
same,pH,NaOH 50 μL,10.78
same,pH,NaOH 51 μL,10.81
same,pH,NaOH 52 μL,10.82
same,pH,NaOH 53 μL,10.82
same,pH,NaOH 54 μL,10.85
same,pH,NaOH 55 μL,10.85
same,pH,NaOH 56 μL,10.87
same,pH,NaOH 57 μL,10.87
same,pH,NaOH 58 μL,10.89
same,pH,NaOH 59 μL,10.89
same,pH,NaOH 60 μL,10.91
same,pH,NaOH 61 μL,10.92
same,pH,NaOH 62 μL,10.92
same,pH,NaOH 63 μL,10.92
same,pH,NaOH 64 μL,10.95
same,pH,NaOH 65 μL,10.95
same,pH,NaOH 66 μL,10.95
same,pH,NaOH 67 μL,10.97
same,pH,NaOH 68 μL,10.97
same,pH,NaOH 69 μL,11
same,pH,NaOH 70 μL,11
same,pH,NaOH 71 μL,11
same,pH,NaOH 72 μL,11
same,pH,NaOH 73 μL,11
same,pH,NaOH 74 μL,11
same,pH,NaOH 75 μL,11.03
same,pH,NaOH 76 μL,11.03
same,pH,NaOH 77 μL,11.03
"OB(O)c1ccc(B(O)O)cc1 [1,4-phenylene diboronic acid]",pH,NaOH 0 μL,3.32
same,pH,NaOH 1 μL,3.47
same,pH,NaOH 2 μL,3.67
same,pH,NaOH 3 μL,4.07
same,pH,NaOH 4 μL,5.66
same,pH,NaOH 5 μL,6.6
same,pH,NaOH 6 μL,6.97
same,pH,NaOH 7 μL,7.18
same,pH,NaOH 8 μL,7.33
same,pH,NaOH 9 μL,7.44
same,pH,NaOH 10 μL,7.53
same,pH,NaOH 11 μL,7.62
same,pH,NaOH 12 μL,7.69
same,pH,NaOH 13 μL,7.76
same,pH,NaOH 14 μL,7.82
same,pH,NaOH 15 μL,7.88
same,pH,NaOH 16 μL,7.94
same,pH,NaOH 17 μL,8
same,pH,NaOH 18 μL,8.05
same,pH,NaOH 19 μL,8.11
same,pH,NaOH 20 μL,8.17
same,pH,NaOH 21 μL,8.21
same,pH,NaOH 22 μL,8.25
same,pH,NaOH 23 μL,8.39
same,pH,NaOH 24 μL,8.46
same,pH,NaOH 25 μL,8.51
same,pH,NaOH 26 μL,8.57
same,pH,NaOH 27 μL,8.64
same,pH,NaOH 28 μL,8.7
same,pH,NaOH 29 μL,8.76
same,pH,NaOH 30 μL,8.82
same,pH,NaOH 31 μL,8.96
same,pH,NaOH 32 μL,9.02
same,pH,NaOH 33 μL,9.09
same,pH,NaOH 34 μL,9.15
same,pH,NaOH 35 μL,9.21
same,pH,NaOH 36 μL,9.26
same,pH,NaOH 37 μL,9.32
same,pH,NaOH 38 μL,9.38
same,pH,NaOH 39 μL,9.43
same,pH,NaOH 40 μL,9.47
same,pH,NaOH 41 μL,9.51
same,pH,NaOH 42 μL,9.56
same,pH,NaOH 43 μL,9.6
same,pH,NaOH 44 μL,9.64
same,pH,NaOH 45 μL,9.68
same,pH,NaOH 46 μL,9.71
same,pH,NaOH 47 μL,9.75
same,pH,NaOH 48 μL,9.79
same,pH,NaOH 49 μL,9.82
same,pH,NaOH 50 μL,9.86
same,pH,NaOH 51 μL,9.89
same,pH,NaOH 52 μL,9.93
same,pH,NaOH 53 μL,9.96
same,pH,NaOH 54 μL,10
same,pH,NaOH 55 μL,10.03
same,pH,NaOH 56 μL,10.06
same,pH,NaOH 57 μL,10.1
same,pH,NaOH 58 μL,10.13
same,pH,NaOH 59 μL,10.16
same,pH,NaOH 60 μL,10.19
same,pH,NaOH 61 μL,10.23
same,pH,NaOH 62 μL,10.26
same,pH,NaOH 63 μL,10.28
same,pH,NaOH 64 μL,10.3
same,pH,NaOH 65 μL,10.33
same,pH,NaOH 66 μL,10.33
same,pH,NaOH 67 μL,10.37
same,pH,NaOH 68 μL,10.39
same,pH,NaOH 69 μL,10.42
same,pH,NaOH 70 μL,10.44
same,pH,NaOH 71 μL,10.47
same,pH,NaOH 72 μL,10.49
same,pH,NaOH 73 μL,10.49
same,pH,NaOH 74 μL,10.53
same,pH,NaOH 75 μL,10.55
same,pH,NaOH 76 μL,10.55
same,pH,NaOH 77 μL,10.57
